From PubChem BioAssay (NCI) come the findings set out here.

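Compound exposure: 48 hours, 5 concentrations, 96-well plates. GI50 marks 50% less growth. TGI marks complete inhibition of growth.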

One experiment has as its system U251 CNS. The experiment is described as follows: NCI anticancer screen, dose series, 48 h.
`COc1cc(-c2nn(-c3cccc(NC(=O)Nc4ccc(Cl)c(Cl)c4)c3)cc2-c2ccncc2)ccc1Cl`: the GI50 is 0.82 µM and the TGI came out at 2.47 µM.
In turn, `O=c1cc(-c2ccccc2)[nH]c2c(S)cccc12` gave a TGI of over 100 µM.
Same read-out and setting: the same measure for `Cc1ccc(-c2nc3ccc([N+](=O)[O-])cc3[nH]2)cc1`: over 100 µM.

A further experiment concerns OVCAR-5 ovarian. The experiment can be described thus: NCI anticancer screen, dose series, 48 h.
On to `Nc1nccc2c1ccn2-c1ccc(NC(=O)c2ccc(N3CCOCC3)c(C(F)(F)F)c2)cc1`, for which the GI50 was 1.64 µM and the TGI is 20.6 µM.
In turn, `Cc1[nH]c2ccccc2c1-c1cc(-c2cc(-c3c(C)[nH]c4ccccc34)on2)no1` had a TGI of over 100 µM.
As to `Cn1cnc([N+](=O)[O-])c1S(=O)(=O)Oc1ccccc1`, the GI50 is 23.9 µM and the TGI was 74.9 µM.
The corresponding values for `COc1cc(C2c3cc4c(cc3C(O)C(CO)C2CO)OCO4)cc(OC)c1OC` (centres undefined) are 5.69 µM and over 100 µM.
`CCCNC(=S)/N=C/c1c(O)c2ccccc2[nH]c1=O` gave a TGI of over 100 µM.
Consider `COC1C(O)=C2C(=O)O/C(C)=C/C=C/C=C/C=C\CC(c3ccccc3)NC(=O)\C=C/C=C\C=C\C=C\[C@@]2(C)[C@@H]1O` (some centres undefined), for which the TGI was determined as 0.413 µM.
Turning to `COc1ccc(-c2oc(=O)ccc2-c2cc(OC)c(OC)c(OC)c2)cc1F`, the GI50 was 35.6 µM and the TGI is over 100 µM.
In the same order, the values of `CC(C)=CCc1cc(O)cc2c1OC(C=C(C)C)C1=C2C(=O)C2=C(NCCS2(=O)=O)C1=O` (centres undefined) are 3.72 µM and 7.01 µM.
On to `COc1c(OC)c(OC)c(C(=O)/C=C/c2ccccc2)c(OC)c1OC`, for which the TGI amounted to 36.9 µM.
As for `N#C/C=C(\c1ccc([N+](=O)[O-])cc1)n1nnc2cc(Cl)c(Cl)cc21`, the GI50 is 1.95 µM and the TGI stood at 3.99 µM.
The corresponding values for `COc1cc(-c2nn(-c3cccc(NC(=O)Nc4ccc(Cl)c(Cl)c4)c3)cc2-c2ccncc2)ccc1Cl` are 2.13 µM and over 50 µM.
`O=c1cc(-c2ccccc2)[nH]c2c(S)cccc12` showed a TGI of over 100 µM.

A further experiment has as its system HOP-62 NSCLC. The experiment is described as follows: NCI anticancer screen, dose series, 48 h.
Take `Nc1nccc2c1ccn2-c1ccc(NC(=O)c2ccc(N3CCOCC3)c(C(F)(F)F)c2)cc1`: the GI50 is 0.342 µM and the TGI was 1.73 µM.
For `Cc1[nH]c2ccccc2c1-c1cc(-c2cc(-c3c(C)[nH]c4ccccc34)on2)no1`, the TGI was over 100 µM.
On to `Cn1cnc([N+](=O)[O-])c1S(=O)(=O)Oc1ccccc1`, for which the GI50 was 19.3 µM and the TGI is 39 µM.
In the same order, the values of `COc1cc(C2c3cc4c(cc3C(O)C(CO)C2CO)OCO4)cc(OC)c1OC` (centres undefined) are 1.47 µM and over 100 µM.
In turn, `CCCNC(=S)/N=C/c1c(O)c2ccccc2[nH]c1=O` had a TGI of over 100 µM.
On the same count and under the same terms, the same measure for `COC1C(O)=C2C(=O)O/C(C)=C/C=C/C=C/C=C\CC(c3ccccc3)NC(=O)\C=C/C=C\C=C\C=C\[C@@]2(C)[C@@H]1O` (some centres undefined): 0.146 µM.
Consider `COc1ccc(-c2oc(=O)ccc2-c2cc(OC)c(OC)c(OC)c2)cc1F`, for which the GI50 was 32.7 µM and the TGI was over 100 µM.
On to `CC(C)=CCc1cc(O)cc2c1OC(C=C(C)C)C1=C2C(=O)C2=C(NCCS2(=O)=O)C1=O` (centres undefined), for which the GI50 is 3.01 µM and the TGI came to 5.94 µM.
For `N#C/C=C(\c1ccc([N+](=O)[O-])cc1)n1nnc2cc(Cl)c(Cl)cc21`, the GI50 is 1.99 µM and the TGI was 5.04 µM.
The corresponding values for `COc1cc(-c2nn(-c3cccc(NC(=O)Nc4ccc(Cl)c(Cl)c4)c3)cc2-c2ccncc2)ccc1Cl` are 1.44 µM and 4.9 µM.
`CCSc1[nH]c(Nc2nc(-c3ccccc3)n(-c3ccccc3)n2)c(C(N)=O)c1C(N)=O` returned a TGI of over 10 µM.
Consider `O=c1cc(-c2ccccc2)[nH]c2c(S)cccc12`, for which the TGI was over 100 µM.
The compound `Cc1ccc(-c2nc3ccc([N+](=O)[O-])cc3[nH]2)cc1` came in with a TGI of over 100 µM.

The next experiment deals with SF-295 CNS. The experiment can be described thus: NCI anticancer screen, dose series, 48 h.
Regarding `Nc1nccc2c1ccn2-c1ccc(NC(=O)c2ccc(N3CCOCC3)c(C(F)(F)F)c2)cc1`, the GI50 was 0.204 µM and the TGI stood at 0.515 µM.
`Cc1[nH]c2ccccc2c1-c1cc(-c2cc(-c3c(C)[nH]c4ccccc34)on2)no1`: the TGI was over 100 µM.
For the compound `Cn1cnc([N+](=O)[O-])c1S(=O)(=O)Oc1ccccc1`, the GI50 is 29.9 µM and the TGI is over 73 µM.
Regarding `COc1cc(C2c3cc4c(cc3C(O)C(CO)C2CO)OCO4)cc(OC)c1OC` (centres undefined), the GI50 is 0.219 µM and the TGI came to 0.468 µM.
Take `CCCNC(=S)/N=C/c1c(O)c2ccccc2[nH]c1=O`: the TGI is over 100 µM.
The same measure, in the same setting: with `COC1C(O)=C2C(=O)O/C(C)=C/C=C/C=C/C=C\CC(c3ccccc3)NC(=O)\C=C/C=C\C=C\C=C\[C@@]2(C)[C@@H]1O` (some centres undefined) the figure was 0.0238 µM.
Consider `COc1ccc(-c2oc(=O)ccc2-c2cc(OC)c(OC)c(OC)c2)cc1F`, for which the GI50 was 6.67 µM and the TGI was determined as 89.7 µM.
Compound `COc1c(OC)c(OC)c(C(=O)/C=C/c2ccccc2)c(OC)c1OC` registered a TGI of 29.9 µM.
As to `COc1cc(-c2nn(-c3cccc(NC(=O)Nc4ccc(Cl)c(Cl)c4)c3)cc2-c2ccncc2)ccc1Cl`, the GI50 was 0.691 µM and the TGI came out at 2.53 µM.
The compound `CCSc1[nH]c(Nc2nc(-c3ccccc3)n(-c3ccccc3)n2)c(C(N)=O)c1C(N)=O` yielded a TGI of over 10 µM.
The compound `O=c1cc(-c2ccccc2)[nH]c2c(S)cccc12` showed a TGI of over 100 µM.
`Cc1ccc(-c2nc3ccc([N+](=O)[O-])cc3[nH]2)cc1`: the TGI was over 100 µM.

A further experiment deals with MDA-MB-435. The experiment can be described thus: NCI anticancer screen, dose series, 48 h.
For the compound `Nc1nccc2c1ccn2-c1ccc(NC(=O)c2ccc(N3CCOCC3)c(C(F)(F)F)c2)cc1`, the GI50 is 0.69 µM and the TGI worked out at 2.99 µM.
Take `Cc1[nH]c2ccccc2c1-c1cc(-c2cc(-c3c(C)[nH]c4ccccc34)on2)no1`: the TGI came to 80.6 µM.
For the compound `Cn1cnc([N+](=O)[O-])c1S(=O)(=O)Oc1ccccc1`, the GI50 is 9.84 µM and the TGI worked out at 31.9 µM.
In the same order, the values of `COc1cc(C2c3cc4c(cc3C(O)C(CO)C2CO)OCO4)cc(OC)c1OC` (centres undefined) are 0.197 µM and 0.549 µM.
`CCCNC(=S)/N=C/c1c(O)c2ccccc2[nH]c1=O` registered a TGI of over 100 µM.
In turn, `COC1C(O)=C2C(=O)O/C(C)=C/C=C/C=C/C=C\CC(c3ccccc3)NC(=O)\C=C/C=C\C=C\C=C\[C@@]2(C)[C@@H]1O` (some centres undefined) showed a TGI of 0.044 µM.
In the case of `COc1ccc(-c2oc(=O)ccc2-c2cc(OC)c(OC)c(OC)c2)cc1F`, the GI50 is 2.13 µM and the TGI turned out to be 6.66 µM.
The corresponding values for `CC(C)=CCc1cc(O)cc2c1OC(C=C(C)C)C1=C2C(=O)C2=C(NCCS2(=O)=O)C1=O` (centres undefined) are 0.315 µM and 0.634 µM.
Take `COc1c(OC)c(OC)c(C(=O)/C=C/c2ccccc2)c(OC)c1OC`: the TGI came out at 19.7 µM.
Take `N#C/C=C(\c1ccc([N+](=O)[O-])cc1)n1nnc2cc(Cl)c(Cl)cc21`: the GI50 was 1.75 µM and the TGI came out at 3.7 µM.
In the same order, the values of `COc1cc(-c2nn(-c3cccc(NC(=O)Nc4ccc(Cl)c(Cl)c4)c3)cc2-c2ccncc2)ccc1Cl` are 0.938 µM and 2.39 µM.
`CCSc1[nH]c(Nc2nc(-c3ccccc3)n(-c3ccccc3)n2)c(C(N)=O)c1C(N)=O` yielded a TGI of over 10 µM.
On the same count and under the same terms, the same measure for `O=c1cc(-c2ccccc2)[nH]c2c(S)cccc12`: over 100 µM.
On the same count and under the same terms, the same measure for `Cc1ccc(-c2nc3ccc([N+](=O)[O-])cc3[nH]2)cc1`: over 100 µM.

The next experiment relates to EKVX NSCLC. The experiment is described as follows: NCI anticancer screen, dose series, 48 h.
For the compound `Nc1nccc2c1ccn2-c1ccc(NC(=O)c2ccc(N3CCOCC3)c(C(F)(F)F)c2)cc1`, the GI50 is 1.69 µM and the TGI turned out to be 70.2 µM.
Regarding `Cc1[nH]c2ccccc2c1-c1cc(-c2cc(-c3c(C)[nH]c4ccccc34)on2)no1`, the TGI was over 100 µM.
For the compound `Cn1cnc([N+](=O)[O-])c1S(=O)(=O)Oc1ccccc1`, the GI50 was 17 µM and the TGI stood at 41.2 µM.
The corresponding values for `COc1cc(C2c3cc4c(cc3C(O)C(CO)C2CO)OCO4)cc(OC)c1OC` (centres undefined) are 1.27 µM and over 71 µM.
On to `CCCNC(=S)/N=C/c1c(O)c2ccccc2[nH]c1=O`, for which the TGI was over 100 µM.
With `COC1C(O)=C2C(=O)O/C(C)=C/C=C/C=C/C=C\CC(c3ccccc3)NC(=O)\C=C/C=C\C=C\C=C\[C@@]2(C)[C@@H]1O` (some centres undefined), the TGI was found to be 0.279 µM.
Regarding `COc1ccc(-c2oc(=O)ccc2-c2cc(OC)c(OC)c(OC)c2)cc1F`, the GI50 was 46.4 µM and the TGI is over 100 µM.
The corresponding values for `CC(C)=CCc1cc(O)cc2c1OC(C=C(C)C)C1=C2C(=O)C2=C(NCCS2(=O)=O)C1=O` (centres undefined) are 2.73 µM and 9.57 µM.
Turning to `COc1c(OC)c(OC)c(C(=O)/C=C/c2ccccc2)c(OC)c1OC`, the TGI came out at 35.5 µM.
Consider `N#C/C=C(\c1ccc([N+](=O)[O-])cc1)n1nnc2cc(Cl)c(Cl)cc21`, for which the GI50 was 1.91 µM and the TGI stood at 4.67 µM.
`CCSc1[nH]c(Nc2nc(-c3ccccc3)n(-c3ccccc3)n2)c(C(N)=O)c1C(N)=O`: the TGI was over 10 µM.
On the same count and under the same terms, with `Cc1ccc(-c2nc3ccc([N+](=O)[O-])cc3[nH]2)cc1` the figure was over 100 µM.
